Data reported in publication PMC12446627, “Novel Thioredoxin reductase 1 inhibitor BS1801 relieves treatment resistance and triggers endoplasmic reticulum stress by elevating reactive oxygen species in glioma” (Redox Biology, 2025).
Read-outs that look alike come from different tables or passages of the source.

Tests used:
[1] = target: T1, Thioredoxin reductase 1 (TrxR1) (Homo sapiens, UniProt Q16881); test: biochemical
T1 construct: gene TXNRD1

[2] = target: T1, Thioredoxin reductase 1 (TrxR1)

T1 sequence (Q16881 whole entry): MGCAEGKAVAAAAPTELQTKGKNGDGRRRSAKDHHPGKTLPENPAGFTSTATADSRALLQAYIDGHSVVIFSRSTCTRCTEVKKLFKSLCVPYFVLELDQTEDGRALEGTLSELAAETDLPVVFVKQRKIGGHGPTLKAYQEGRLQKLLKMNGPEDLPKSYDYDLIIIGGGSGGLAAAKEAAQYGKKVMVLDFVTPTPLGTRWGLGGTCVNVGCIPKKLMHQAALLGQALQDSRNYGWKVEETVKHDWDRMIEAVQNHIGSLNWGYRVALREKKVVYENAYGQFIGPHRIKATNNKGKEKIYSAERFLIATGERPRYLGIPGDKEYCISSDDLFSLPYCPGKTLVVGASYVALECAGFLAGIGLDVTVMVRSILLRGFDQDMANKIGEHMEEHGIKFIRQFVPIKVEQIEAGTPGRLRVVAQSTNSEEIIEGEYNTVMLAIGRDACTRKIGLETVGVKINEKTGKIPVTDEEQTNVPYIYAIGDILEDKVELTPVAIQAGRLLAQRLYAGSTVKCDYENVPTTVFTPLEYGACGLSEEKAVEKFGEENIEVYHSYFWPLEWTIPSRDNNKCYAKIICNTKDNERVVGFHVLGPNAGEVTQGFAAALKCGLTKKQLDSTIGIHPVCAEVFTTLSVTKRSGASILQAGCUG

| Structure (SMILES) | Kd [1] [nM] | Kd [2] [µM] |
| --- | --- | --- |
| O=c1c2ccccc2[se]n1CCCCn1[se]c2ccccc2c1=O [BS1801, 2,2'-(butane-1,4-diyl)bis(benzo[d] [1,2]selenazol-3(2H)-one)] | 2440 | – |
| CC[P](CC)(CC)=[Au][S][C@@H]1O[C@H](COC(C)=O)[C@@H](OC(C)=O)[C@H](OC(C)=O)[C@H]1OC(C)=O [auranofin] | – | 5.07 |
